Source: publication PMC11555678, “Improved Broad Spectrum Antifungal Drug Synergies with Cryptomycin, a Cdc50-Inspired Antifungal Peptide” (ACS Infectious Diseases, 2024)
Values after ≈ are worked out from the molar mass of the structure shown. Square brackets hold non-standard residues; d marks the D form. Peptide text beside a SMILES is read from it. * marks the point of attachment. Myristoyl = CCCCCCCCCCCCCC(=O)*; Orn = NCCC[C@H](N)C(=O)O

Columns and labels:
C. neoformans cdc50Δ = conditions: Cdc50 deleted, previous study; cited from earlier work
Protocol: Our previous studies have identified that the Cn cdc50Δ mutant was highly susceptible to CAS compared to the wild-type.[23] The minimum inhibitory concentration (MIC) of CAS was reduced 4-fold from 16 to 4 μg/mL when Cdc50 was deleted. The surprising observation that loss of Cdc50 sensitized Cryptococcus to CAS led to an obvious question: why did a mutation to a seemingly disparate cellular system-membrane homeostasis proteins have such a dramatic effect on the susceptibility to cell wall biosynthesis inhibitors? It was subsequently discovered that Cdc50 in C. neoformans is unique because it h ...

C. neoformans H99 = assay type: cell-based, Cryptococcus neoformans; conditions: 2× MIC, by 2 h, no rebound by 8 h; RPMI1640, 30 °C, 225 rpm, 2 million cfu/mL
Protocol: Culture tubes were prepared with aliquots of 2.0 mL of RPMI1640 (containing Q, MOPS, pH = 7, no phenol red). The tubes were sealed to prevent evaporation and were equilibrated with the incubation chamber overnight, at 30 °C. On the day of the experiment, overnight yeast cultures in YPD were washed twice with DD-H2O and resuspended in DD-H2O. The OD600 of the cell suspension was adjusted to 4.6, ≈2 × 10^6 cfu/mL, in DD-H2O. A 200 μL aliquot of adjusted cell suspension was added systematically to each tube, followed by 200 μL sampling for the 0 h time point. Immediately after sampling, the antifungal compounds were added, and the tubes were placed in the incubator at 30 °C with shaking at 225 rpm. The sampled aliquot was transferred to a 96-well plate and serially diluted six times, 10-fold each time. The resulting cell suspensions were spotted onto YPD plates in a grid pattern of 5 μL per spot. Subsequently, tubes were briefly removed from the incubator, and 100 μL aliquots were sampled at 2, 4, 6, and 8 h time points. Cells were counted on the YPD plates at either 24 or 48 h after plate spotting, depending on when the colonies were countable. Images of the YPD plates were recorded on the Bio-Rad Gel imager after 48 h of incubation at 30 °C. […] 2 C = number of colonies counted, Df = dilution factor = 10^n–1, n = column that the cells were counted, and Vf = volume factor = 1/0.005 mL.

Cn H99 = assay: Intracellular ROS detection (H2DCFDA, flow cytometry); assay type: cell-based, Cryptococcus neoformans; conditions: 30 min exposure in YPD
Protocol: (§1) Protocol was carried out in accordance with previously reported methodologies.[35] Yeast cells were grown ON in liquid YPD, washed once in H2O, and resuspended in fresh YPD. The OD600 was adjusted to 0.2 in YPD. Cells were incubated for 3 h at 30 °C, 225 rpm, and then stained with 10 μM H2DCFDA for 2 h at 30 °C, 225 rpm, in the dark. Stained cells were washed twice with DD-H2O and resuspended in the minimal amount of YPD or calcium-enriched YPD needed to inoculate each technical replicate with cells. Each condition was prepared with four technical replicates. In the dark, the stained cells were titrated with KKOO-NH2 from 0.25 to 1× MIC and incubated for 30 min at 30 °C, 225 rpm, in 1 mL of YPD in 12 mL of vented culture tubes. After treatment, cells were transferred to 1.5 mL Eppendorf and centrifuged for 5 min at 2000 rpm. The cells were washed once with 0.5 mL of PBS and resuspended in 0.2 mL of PBS, and stored on ice for live-cell flow analysis, BD FACS Via (Franklyn Lakes, NJ). 100,000 events were recorded, and singlets were gated from SSC-A × FSC-A plot. Mean fluorescence signal intensity from the probe was plotted as a function of peptide concentration. Cells that remained after FACS were pooled based on their condition and imaged under the fluorescence microscope, Zeiss Axioscope 5.

Cn cdc50Δ = assay: as above; assay type: cell-based, Cryptococcus neoformans; conditions: 30 min exposure in YPD
Protocol: as §1

[1] = system: C. neoformans with macrophage J774 cells; assay: Phagocytosis assay; assay type: cell-based, Cryptococcus neoformans / murine macrophage; conditions: sub-MIC peptide-treated yeast cells coincubated with macrophages for 2 h
Protocol: The J774A. I macrophage-like cell line (ATCC# TIB-67) was grown in DMEM supplemented with 10% FBS, 5% penstrep, and L-glutamine (1×), and passed 2–3 times per week. The cells were never used after 5 passages. Phagocytosis assay was performed in a 48-well plate using J774 cells (5 × 10^4) in 0.5 mL of fresh DMEM were added to each well and incubated at 37 °C, 5% CO2. To activate the macrophages, 50 units/mL interferon γ (IFN-γ; Invitrogen) and 1 μg/mL lipopolysaccharide (LPS; Sigma) were added to each well. Yeast cells were adjusted to 2.4 × 10^6 cfu/mL in RPMI1640. One mL of cell suspension was aliquoted into a 12 mL vented culture tube. The peptide was added to each tube, and the cells were incubated for 30 min at 30 °C, 225 rpm. The cells were pelleted and resuspended in 100 μL of 20% mouse compliment in PBS. The cells were opsonized at room temperature for 30 min. After opsonization, 10 μL of cell suspension was added to each well. Yeast cells were coincubated with macrophages for 2 h at 37 °C in 5% CO2 in technical triplicates per condition. After coincubation, the supernatant was removed, and the wells were washed 3 times with 200 μL DMEM + penstrep, and then fixed with 200 μL ice cold methanol for 30 min. […] The images were quantified using phagocytosis rate, % phagocytosis, and phagocytic index, eqs 3–5, between 200 and 300 macrophages were counted per technical replicate [drawing 3] […]

Structure (SMILES)	MIC (C. neoformans cdc50Δ) [µg/mL]	Cryptococcus cells killed (C. neoformans H99) [%]	lowest peptide concentration with elevated ROS production (Cn H99) [µg/mL]	lowest peptide concentration with elevated ROS production (Cn cdc50Δ) [µg/mL]	phagocytic index or phagocytosis rate vs control [1]
CC[C@H](C)C[C@H](C)CCCCCCCCC(=O)N[C@H]1C[C@@H](O)[C@@H](NCCN)NC(=O)[C@@H]2[C@@H](O)CCN2C(=O)[C@H]([C@H](O)CCN)NC(=O)[C@H]([C@H](O)[C@@H](O)c2ccc(O)cc2)NC(=O)[C@@H]2C[C@@H](O)CN2C(=O)[C@H]([C@@H](C)O)NC1=O [CAS, caspofungin]	4 (≈ 3.66 µM)	–	–	–	–
CCCCCCCCCCCCCC(=O)N[C@@H](Cc1c[nH]c2ccccc12)C(=O)NCC(=O)NCC(=O)N[C@H](C(=O)N[C@@H](CCCN)C(=O)N[C@@H](CCCN)C(=O)N[C@@H](CC(N)=O)C(=O)N[C@@H](Cc1ccc(O)cc1)C(=O)N[C@@H](C)C(N)=O)[C@@H](C)CC [KKOO-NH2] (Myristoyl-WGGI[Orn][Orn]NYA-NH2)	–	> 99.9	4	1	No statistically significant differences
